Assay results taken from ChEMBL document CHEMBL1136889, “The application of the phosphoramidate ProTide approach confers micromolar potency against hepatitis C virus on inactive agent 4'-azidoinosine: kinase bypass on a dual base/sugar modified nucleoside” (Bioorg Med Chem Lett, 2009).

Columns and labels:
Hepatitis C virus = test: Antiviral activity against HCV 1b in human HuH7 cells assessed as renilla luciferase activity by replicon assay; format: functional, organism-based, Hepacivirus hominis; details: genotype 1b, Huh-7
[1] = Cytotoxicity against human HuH7 cells assessed as [3H]thymidine incorporation; format: cell-based, Huh-7

**Q.** Which results are given for `C[C@H](NP(=O)(OC[C@@]1(N=[N+]=[N-])O[C@@H](n2cnc3c(=O)[nH]cnc32)[C@H](O)[C@@H]1O)Oc1cccc2ccccc12)C(=O)OC(C)(C)C` (stereo partly drawn)?
**A.** EC50 (Hepatitis C virus): > 100 µM; CC50 [1]: > 100 µM

**Q.** For `C[C@H](NP(=O)(OC[C@@]1(N=[N+]=[N-])O[C@@H](n2cnc3c(=O)[nH]cnc32)[C@H](O)[C@@H]1O)Oc1ccccc1)C(=O)OC(C)(C)C` (stereo partly drawn), which EC50 (Hepatitis C virus) is on record?
**A.** > 100 µM

**Q.** And the CC50 [1]?
**A.** > 100 µM

**Q.** Which results are given for `CC(C)OC(=O)[C@H](C)NP(=O)(OC[C@@]1(N=[N+]=[N-])O[C@@H](n2cnc3c(=O)[nH]cnc32)[C@H](O)[C@@H]1O)Oc1ccccc1` (stereo partly drawn)?
**A.** EC50 (Hepatitis C virus): > 100 µM; CC50 [1]: > 100 µM

**Q.** What does the source list for `CC(C)OC(=O)[C@H](C)NP(=O)(OC[C@@]1(N=[N+]=[N-])O[C@@H](n2cnc3c(=O)[nH]cnc32)[C@H](O)[C@@H]1O)Oc1cccc2ccccc12` (stereo partly drawn)?
**A.** EC50 (Hepatitis C virus): 6.1 µM; CC50 [1]: > 100 µM

**Q.** For `CCOC(=O)[C@H](C)NP(=O)(OC[C@@]1(N=[N+]=[N-])O[C@@H](n2cnc3c(=O)[nH]cnc32)[C@H](O)[C@@H]1O)Oc1cccc2ccccc12` (stereo partly drawn), which EC50 (Hepatitis C virus) is on record?
**A.** 16.4 µM

**Q.** What about the CC50 [1] of the same compound?
**A.** > 100 µM

**Q.** What does the source list for `CCOC(=O)[C@H](C)NP(=O)(OC[C@@]1(N=[N+]=[N-])O[C@@H](n2cnc3c(=O)[nH]cnc32)[C@H](O)[C@@H]1O)Oc1ccccc1` (stereo partly drawn)?
**A.** EC50 (Hepatitis C virus): > 100 µM; CC50 [1]: > 100 µM

**Q.** Which results are given for `C[C@H](NP(=O)(OC[C@@]1(N=[N+]=[N-])O[C@@H](n2cnc3c(=O)[nH]cnc32)[C@H](O)[C@@H]1O)Oc1cccc2ccccc12)C(=O)OCc1ccccc1` (stereo partly drawn)?
**A.** EC50 (Hepatitis C virus): 4.3 µM; CC50 [1]: > 100 µM

**Q.** Which results are given for `C[C@H](NP(=O)(OC[C@@]1(N=[N+]=[N-])O[C@@H](n2cnc3c(=O)[nH]cnc32)[C@H](O)[C@@H]1O)Oc1ccccc1)C(=O)OCc1ccccc1` (stereo partly drawn)?
**A.** EC50 (Hepatitis C virus): > 100 µM; CC50 [1]: > 100 µM

**Q.** Which EC50 (Hepatitis C virus) does the source give for `[N-]=[N+]=N[C@]1(CO)O[C@@H](n2cnc3c(=O)[nH]cnc32)[C@H](O)[C@@H]1O` here?
**A.** > 100 µM

**Q.** What about the CC50 [1] of the same compound?
**A.** > 100 µM
